Source: patent US9790169B2, “IDO inhibitors” (BRISTOL-MYERS SQUIBB COMPANY, priority 2015, dated 2017)

target: human IDO1 (Homo sapiens, UniProt P14902); test: Assessment of human IDO-1 inhibitory activity in HEK cells (human IDO1/HEK293 cells, kynurenine read-out with Ehrlich reagent, absorbance 490 nm); assay type: cell-based; design: expressed in transfected cells; details: HEK Human IDO-1 cellular assay
In short: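 Kynurenine output from stably IDO1-transfected HEK293 cells (10,000/well, phenol red-free RPMI, 10% FBS) after 20 h compound exposure at 37 °C. The reaction was stopped with 0.2% TCA and heated 30 min at 50 °C, then the supernatant was mixed with Ehrlich reagent and read at 490 nm. IC50 was set against DMSO and a 500 nM reference standard as 0 and 100% inhibition.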

human IDO1, sequence (P14902 whole entry): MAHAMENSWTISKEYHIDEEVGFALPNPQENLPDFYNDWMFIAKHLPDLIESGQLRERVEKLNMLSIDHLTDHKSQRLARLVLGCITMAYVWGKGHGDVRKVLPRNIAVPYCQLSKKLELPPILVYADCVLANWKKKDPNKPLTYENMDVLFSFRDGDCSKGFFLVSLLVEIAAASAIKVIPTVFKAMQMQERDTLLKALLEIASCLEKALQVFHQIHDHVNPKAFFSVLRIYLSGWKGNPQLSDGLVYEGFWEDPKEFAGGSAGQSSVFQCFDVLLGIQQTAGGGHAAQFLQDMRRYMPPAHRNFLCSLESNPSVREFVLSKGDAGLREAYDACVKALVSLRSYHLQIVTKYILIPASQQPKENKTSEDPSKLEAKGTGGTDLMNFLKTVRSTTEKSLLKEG

Q: For `CCOc1ccc(NC(=O)Nc2cc(C(COC)CC(=O)O)cc(F)c2N(CC(C)C)CC(C)C)c(F)c1` (single isomer, unassigned) [Example 1191, 3-(4-(Diisobutylamino)-3-(3-(4-ethoxy-2-fluorophenyl)ureido)-5-fluorophenyl)-4-methoxybutanoic acid], which IC50 is on record?
A: The IC50 was less than 5 nM.

Q: `COCC(CC(=O)O)c1ccc(N(CC2CC2)C2CCOCC2)c(Nc2ccc(Cl)c(OCC(F)(F)F)c2)c1` (single isomer, unassigned) [Example 682, 3-(3-((4-chloro-3-(2,2,2-trifluoroethoxy)phenyl)amino)-4-((cyclopropylmethyl) (tetrahydro-2H-pyran-4-yl)amino)phenyl)-4-methoxybutanoic acid] was tested. Which IC50 did it give?
A: The IC50 was greater than 50 nM.

Q: `CCN(c1ccc(C(CC(=O)O)c2ccccc2)cc1NC(=O)Nc1ccc(OC)cc1F)C1CCOCC1` (single isomer, unassigned) [Example 586, 3-(4-(ethyl(tetrahydro-2H-pyran-4-yl)amino)-3-(3-(2-fluoro-4-methoxyphenyl)ureido)phenyl)-3-phenylpropanoic acid] was tested. Which IC50 did it give?
A: The IC50 was greater than 50 nM.

Q: For `COCC(CC(=O)O)c1ccc(N(CC2CC2)C2CCOCC2)c(Nc2ccc(Cl)c(OCC3CC3)c2)c1` (single isomer, unassigned) [Example 683, 3-(3-((4-chloro-3-(cyclopropylmethoxy)phenyl)amino)-4-((cyclopropylmethyl) (tetrahydro-2H-pyran-4-yl)amino)phenyl)-4-methoxybutanoic acid], which IC50 is on record?
A: Its IC50 is greater than 50 nM.

Q: For `Cc1ccc(NC(=O)Nc2cc(C(CC(=O)O)C3CC3)ccc2N(CC(C)C)C2CCOCC2)cc1` (single isomer, unassigned) [1202 E2], which IC50 is on record?
A: The IC50 was less than 5 nM.

Q: For `CCC(CC(=O)O)c1ccc(N2CCOC[C@H]2C(C)C)c(NC(=O)Nc2cc(C)on2)c1` (single isomer, unassigned) [Example 898], which IC50 is on record?
A: Its IC50 is greater than 50 nM.

Q: How did the IC50 turn out when `CC[C@H](CC(=O)O)c1ccc(N(CC2CC2)CC(C)(C)O)c(Nc2ccc(F)cc2)c1` (single isomer, unassigned) [Example 273] was run?
A: Its IC50 is less than 50 nM.

Q: `COCC(CC(=O)O)c1ccc(N(CC(C)C)C2CCCCC2)c(NC(=O)Nc2ccc(Cl)cc2F)c1` (single isomer, unassigned) [985-1] was tested. Which IC50 did it give?
A: The IC50 was less than 5 nM.

Q: For `C[C@@H]1CN(c2ccc(C(C)(C)CC(=O)O)cc2Nc2ccc(F)cc2)C[C@H](C)O1` [Example 732, 3-(4-((2S,6R)-2,6-dimethylmorpholino)-3-((4-fluorophenyl)amino)phenyl)-3-methylbutanoic acid], which IC50 is on record?
A: The IC50 was less than 50 nM.

Q: `COCCC(CC(=O)O)c1ccc(N(CC(C)C)C2CCCCC2)c(NC(=O)Nc2ccc(C)cc2)c1` (racemic) [Example 1003, (+/−)-3-(4-(Cyclohexyl(isobutyl)amino)-3-(3-(p-tolyl)ureido)phenyl)-5-methoxypentanoic acid] was tested. Which IC50 did it give?
A: Its IC50 is less than 5 nM.

Q: For `CCC(CC(=O)O)c1ccc(N2CCOC[C@H]2C(C)C)c(NC(=O)Nc2ccc(OC)cc2F)c1` (single isomer, unassigned) [Example 897], which IC50 is on record?
A: The IC50 was greater than 50 nM.

Q: `CCC(CC(=O)O)c1ccc(N(CC(C)C)C2CCCCC2)c(NC(=O)Cc2cc(F)ccc2F)c1` (racemic) [Example 1087] was tested. Which IC50 did it give?
A: The IC50 was less than 5 nM.

Q: For `COCC(CC(=O)O)c1ccc(N(CC(C)C)C2CCCCC2)c(NC(=O)Nc2ccccc2F)c1` (single isomer, unassigned) [1125 E2], which IC50 is on record?
A: The IC50 was less than 5 nM.

Q: How did the IC50 turn out when `CC[C@H](CC(=O)O)c1ccc(N(CC)C2CCOCC2)c(Nc2ccc(C#N)cc2)c1` (single isomer, unassigned) [Example 501] was run?
A: Its IC50 is less than 5 nM.

Q: How did the IC50 turn out when `CCOc1ccc(CC(=O)Nc2cc(C(COC)CC(=O)O)cc(F)c2N(CC(C)C)C2CCCCC2)cc1` (single isomer, unassigned) [Example 1168, 3-(4-(cyclohexyl(isobutyl)amino)-3-(2-(4-ethoxyphenyl)acetamido)-5-fluorophenyl)-4-methoxybutanoic acid] was run?
A: Its IC50 is less than 50 nM.

Q: How did the IC50 turn out when `CCN(c1ccc(C(C)CC(=O)O)cc1Nc1cnc(C)nc1)C1CCOCC1` (single isomer, unassigned) [Example 623, 3-(4-(ethyl(tetrahydro-2H-pyran-4-yl)amino)-3-((2-methylpyrimidin-5-yl)amino)phenyl)butanoic acid] was run?
A: Its IC50 is less than 50 nM.

Q: How did the IC50 turn out when `CC[C@@H](CC(=O)O)c1ccc(N2CCOC[C@@H]2C(C)C)c(NC(=O)Nc2ccc(Cl)cc2F)c1` (single isomer, unassigned) [Example 75] was run?
A: The IC50 was less than 50 nM.

Q: Which IC50 does the source give for `CCC(CC(=O)O)c1ccc(N2CCC[C@H]2C(C)(C)O)c(Nc2ccc(OCC3CC3)cc2)c1` (single isomer, unassigned) [Example 818] here?
A: Its IC50 is greater than 50 nM.

Q: Which IC50 does the source give for `CC[C@@H](CC(=O)O)c1ccc(N(CC)C2CCOCC2)c(NC(=O)Nc2ccc(Cl)cc2)c1` (single isomer, unassigned) [Example 494] here?
A: Its IC50 is greater than 50 nM.

Q: Which IC50 does the source give for `CCOc1ccc(NC(=O)Nc2cc(C(COC)CC(=O)O)ccc2N(CC(C)C)C2CCCCC2)c(F)c1` (single isomer, unassigned) [Example 1236, 3-(4-(Cyclohexyl(isobutyl)amino)-3-(3-(4-ethoxy-2-fluorophenyl)ureido)phenyl)-4-methoxybutanoic acid] here?
A: Its IC50 is less than 5 nM.

Q: For `COCC(CC(=O)O)c1cc(F)c(N(CC(C)C)C2CCCCC2)c(NC(=O)Nc2ccc(Cl)cc2)c1` (single isomer, unassigned) [Example 1162, 3-(3-(3-(4-chlorophenyl)ureido)-4-(cyclohexyl(isobutyl)amino)-5-fluorophenyl)-4-methoxybutanoic acid], which IC50 is on record?
A: Its IC50 is less than 5 nM.

Q: `CCC(CC(=O)O)c1cc(F)c(N(CC(C)C)CC(C)C)c(NC(=O)Cc2ccc(F)cc2F)c1` (racemic) [Example 1082] was tested. Which IC50 did it give?
A: Its IC50 is less than 5 nM.

Q: For `CCOc1ncc(Nc2cc(C(CC)CC(=O)O)ccc2N(CC)C2CCCOC2)cn1` (single isomer, unassigned) [Example 69, 3-(3-((2-ethoxypyrimidin-5-yl)amino)-4-(ethyl(tetrahydro-2H-pyran-3-yl)amino)phenyl)pentanoic acid], which IC50 is on record?
A: Its IC50 is less than 5 nM.

Q: How did the IC50 turn out when `CCC(CC(=O)O)c1ccc(N2CCC[C@@H]2COC)c(NC(=O)Cc2ccc(C)cc2)c1` (single isomer, unassigned) [Example 1144] was run?
A: Its IC50 is greater than 50 nM.

Q: `CC[C@@H](CC(=O)O)c1ccc(N(CC)C2CCCCC2)c(Nc2ccc(Cl)cc2)c1` (single isomer, unassigned) [Example 279] was tested. Which IC50 did it give?
A: The IC50 was less than 5 nM.

Q: For `COCC(CC(=O)O)c1cc(F)c(N(CC(C)C)C2CCCCC2)c(NC(=O)Nc2ccc(OC(F)(F)F)cc2)c1` (single isomer, unassigned) [Example 1154, 3-(4-(cyclohexyl(isobutyl)amino)-3-fluoro-5-(3-(4-(trifluoromethoxy)phenyl)ureido)phenyl)-4-methoxybutanoic acid], which IC50 is on record?
A: Its IC50 is less than 50 nM.

Q: With `COCC(CC(=O)O)c1ccc(N(CC(C)C)C2CCOCC2)c(NC(=O)Nc2ccc(OC)cc2F)c1` (single isomer, unassigned) [Example 1214, 3-(3-(3-(2-Fluoro-4-methoxyphenyl)ureido)-4-(isobutyl(tetrahydro-2H-pyran-4-yl)amino)phenyl)-4-methoxybutanoic acid] as the compound, how does the IC50 read?
A: Its IC50 is greater than 50 nM.

Q: `CC[C@@H](CC(=O)O)c1ccc(N2CCOC[C@@H]2C(C)C)c(NC(=O)Nc2ccc(OC)cc2F)c1` (single isomer, unassigned) [Example 76] was tested. Which IC50 did it give?
A: Its IC50 is greater than 50 nM.

Q: `CCC(CC(=O)O)c1ccc(N2CCC[C@H]2C(C)(C)F)c(NC(=O)Nc2ccc(Cl)cc2F)c1` (single isomer, unassigned) [Example 786] was tested. Which IC50 did it give?
A: The IC50 was greater than 50 nM.

Q: `CCC(CC(=O)O)c1cc(NC(=O)Nc2cnc(OC)nc2)c(N(CC(C)C)CC(C)C)cc1F` (racemic) [Example 1140, (±)-3-(4-(Diisobutylamino)-2-fluoro-5-(3-(2-methoxypyrimidin-5-yl)ureido)phenyl)pentanoic acid] was tested. Which IC50 did it give?
A: The IC50 was less than 5 nM.

Q: With `CCN(c1ccc([C@@H](COC)CC(=O)O)cc1Nc1ccc2nc(C)sc2c1)C1CCOCC1` (single isomer, unassigned) [Example 377] as the compound, how does the IC50 read?
A: Its IC50 is less than 50 nM.

Q: Which IC50 does the source give for `CC[C@H](CC(=O)O)c1ccc(N(CC(C)(C)O)C2CCOCC2)c(Nc2ccc3c(c2)OC(F)(F)O3)c1` (single isomer, unassigned) [Example 204] here?
A: Its IC50 is less than 5 nM.

Q: For `CCN(c1ccc(C(C)(C)CC(=O)O)cc1Nc1cnc(OC)nc1)C1CCOCC1` [Example 162, 3-(4-(ethyl(tetrahydro-2H-pyran-4-yl)amino)-3-((2-methoxypyrimidin-5-yl)amino)phenyl)-3-methylbutanoic acid], which IC50 is on record?
A: Its IC50 is less than 50 nM.

Q: For `CC(CC(=O)O)c1ccc(N(CC(C)(C)O)C2CCOCC2)c(Nc2ccc(C#N)cc2)c1` (single isomer, unassigned) [Example 196, 3-(3-((4-Cyanophenyl)amino)-4-((2-hydroxy-2-methylpropyl)(tetrahydro-2H-pyran-4-yl)amino)phenyl)butanoic acid], which IC50 is on record?
A: Its IC50 is less than 5 nM.

Q: Which IC50 does the source give for `CCC(CC(=O)O)c1ccc(N2CC[C@H](O)C2)c(Nc2ccc(Cl)cc2)c1` (single isomer, unassigned) [Example 266] here?
A: Its IC50 is greater than 50 nM.

Q: Which IC50 does the source give for `CCC(CC(=O)O)c1ccc(N(CC(C)C)C2CCCCC2)c(Nc2ccc(Cl)c(OCC(F)F)c2)c1` (single isomer, unassigned) [Example 643, 3-(3-((4-chloro-3-(2,2-difluoroethoxy)phenyl)amino)-4-(cyclohexyl (isobutyl)amino)phenyl) pentanoic acid] here?
A: The IC50 was less than 5 nM.

Q: `CCOc1ncc(Nc2cc(C(CC)CC(=O)O)ccc2N2CCC[C@H]2C(C)(C)O)cn1` (single isomer, unassigned) [Example 839] was tested. Which IC50 did it give?
A: Its IC50 is greater than 50 nM.

Q: How did the IC50 turn out when `CCN(c1ccc([C@@H](COC)CC(=O)O)cc1Nc1cnc(C)nc1)C1CCOCC1` (single isomer, unassigned) [Example 379] was run?
A: Its IC50 is greater than 50 nM.

Q: `COc1ncc(Nc2cc(C(C)CC(=O)O)ccc2N2C[C@@H](C)O[C@@H](C)C2)cn1` (single isomer, unassigned) [Example 741] was tested. Which IC50 did it give?
A: The IC50 was greater than 50 nM.

Q: For `COc1ncc(Nc2cc(C(C)(C)CC(=O)O)ccc2N2C[C@@H](C)O[C@@H](C)C2)cn1` [Example 735, 3-(4-((2S,6R)-2,6-dimethylmorpholino)-3-((2-methoxypyrimidin-5-yl)amino)phenyl)-3-methylbutanoic acid], which IC50 is on record?
A: The IC50 was greater than 50 nM.
